Results published in patent US11110075B2, “Use of daphnetin in improving function of aortic endothelial cell” (XI'AN JIAOTONG UNIVERSITY, priority 2019, dated 2021).

Experiments:
[1] = system: human aortic endothelial cells (HAECs); assay: MTT assay, viability of HAECs inhibited by palmitic acid; assay type: cell-based; conditions: HAECs pretreated with 10 μM daphnetin 24 h, then 500 μM palmitic acid 24 h; vs palmitic acid treated cells without daphnetin; FIG. 1
Protocol: (§1) Human aortic endothelial cells (HAECs) were purchased from Shanghai Bioleaf Biotech Co., Ltd. Palmitic acid (PA) was purchased from SIGMA Company. A palmitic acid solution having a concentration of 500 μM was prepared by dissolving palmitic acid in water. A cell culture incubator was adopted to culture the cells in a temperature-constant, humidified, sterile condition. The cells were cultured in wells of culture plates at an atmosphere of 95% air and 5% CO2 at 37° C. in the incubator. The experiments were performed on different experimental groups of cells.
The HAECs that were previously cultured in a 12-well cell culture plates were divided into 6 different experimental groups and respectively applied with daphnetin in different concentrations, 0 μM, 1 μM, 10 μM, 50 μM, 100 μM, and 200 μM, all followed with an 24-hour incubation. Then, each of the 6 groups of cells was further divided into two subgroups; one was applied with 500 μM palmitic acid, the other was not, and all followed with another 24-hour incubation.
An MTT assay was performed to all groups of cells. […] The absorbance was measured at a wavelength of 490 nm in a spectrophotometer. The absorbance of this colored solution can be quantified by measuring at a certain wavelength (usually between 500 and 600 nm) by a spectrophotometer.

[2] = system: interleukin-6 (IL-6) mRNA; assay: IL-6 mRNA level detection by RT-PCR in palmitic acid treated HAECs; assay type: cell-based, human; conditions: FIG. 2
Protocol: as §1
The HAECs that were previously cultured in a 12-well cell culture plate were divided into 4 different experimental groups and respectively applied with daphnetin in the respective concentrations, 0 μM, 0 μM, 50 μM, 100 μM, and all followed with an 24-hour incubation. Then, the last 3 groups of cells were respectively applied with 500 μM palmitic acid, the first was not, and all followed with another 24-hour incubation. The detecting of mRNA levels corresponding to interleukin-6 (IL-6) was respectively carried out on each group of cells by using reverse transcription RNA and real-time quantitative polymerase chain reaction (PCR), and the specific method is as follows:
The medium for cell culture in the wells was removed. 500 μL of TRIzol™ reagent was added to each well, and the culture plate was then shaken at room temperature for 5 minutes. Then the cells in the wells were collected and transferred to a 1.5 mL eppendorf (EP) tube. 200 μl (taking […] of total volume of the substance in the EP tube) of chloroform was then added to the EP tube for extraction of […]. The samples were then vigorously stirred for 15 seconds, rested for 15 minutes at room temperature, and then centrifuged at a relative centrifugal force of 12,000 g for 10 minutes at 4° C. […] The concentration of the solution was measured by an ultraviolet spectrophotometer. […]

[3] = system: mitochondrial membrane fusion related protein Mfn1; assay: Western blot protein detection of Mfn1 in palmitic acid treated HAECs; assay type: cell-based, human; conditions: FIG. 3A, 3B
Protocol: (§2) Human aortic endothelial cells (HAECs) were purchased from Shanghai Bioleaf Biotech Co., Ltd. Palmitic acid (PA) was purchased from SIGMA Company. A palmitic acid solution having a concentration of 500 μM was prepared by dissolving palmitic acid in water. A cell culture incubator was adopted to culture the cells in a temperature-constant, humidified, sterile condition. The cells were cultured in wells of culture plates at an atmosphere of 95% air and 5% CO2 at 37° C. in the incubator. The experiments were performed on different experimental groups of cells. The HAECs that were previously cultured in a 6-well cell culture plate were divided into 3 different experimental groups, the control (Ctrl) group, the PA group, and the DAP+PA group. The cells of the DAP+PA group were applied with daphnetin in a concentration of 100 μM followed with a 24-hour incubation. Then, the cells of both the PA group and the DAP+PA group were applied with 500 μM palmitic acid, all followed with another 24-hour incubation. The protein detection was respectively carried out on each group of cells as follows. The medium for cell culture in the wells was removed. 150 μL of IP lysis buffer was added to each well of the culture plate. […] The supernatants were collected, and the proteins therein were quantified by bicinchoninic acid (BCA) assay, and normalized. […] Target proteins were detected by chemiluminescence.

[4] = system: mitochondrial membrane fusion related protein Mfn2; assay: Western blot protein detection of Mfn2 in palmitic acid treated HAECs; assay type: cell-based, human; conditions: 500 μM palmitic acid 24 h (PA group) vs control group, FIG. 3A, 3B
Protocol: as §2

Compound	relative cell viability [1]	concentration dependence of inhibition of IL-6 mRNA level ([2]; HAECs pretreated with 50 μM or 100 μM daphnetin, then 500 μM palmitic acid)	mRNA level corresponding to IL-6 ([2]; HAECs pretreated with 100 μM daphnetin 24 h, then 500 μM palmitic acid 24 h, vs palmitic acid alone)	relative protein expression level of Mfn1 ([3]; 100 μM daphnetin 24 h then 500 μM palmitic acid 24 h (DAP+PA group) vs PA group)	increase of mRNA level corresponding to IL-6 ([2]; HAECs, 500 μM palmitic acid 24 h without daphnetin, vs control group)	expression of Mfn1 ([3]; 500 μM palmitic acid 24 h (PA group) vs control group)	expression of Mfn2 [4]
O=c1ccc2ccc(O)c(O)c2o1 [daphnetin, 7,8-dihydroxycoumarin]	higher viabilities	inhibition effect increases with the concentration	significantly decreased	significantly increasing	–	–	–
CCCCCCCCCCCCCCCC(=O)O [palmitic acid]	–	–	–	–	about 20 times	reducing the expression	reducing the expression
